Laboratory results: ChEMBL document CHEMBL1201862, “PubChem BioAssay data set” (2004)
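Results reflect a 48-hour exposure of cells in 96-well plates to compound at five concentrations. Abbreviation: GI50, concentration required for 50% inhibition of growth.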 Activity calls are given as the source filed them. Cut-off read from the data, not from the text of the source: active = GI50 up to about 1.1 µM and inactive = higher.

Assays:
Experiment in all cases: growth of human tumour cells (NCI), 48 h
[1] = tested on: 786-0
[2] = tested on: A498
[3] = tested on: A549
[4] = tested on: ACHN
[5] = tested on: BT-549
[6] = tested on: CAKI-1
[7] = tested on: CCRF-CEM
[8] = tested on: COLO 205
[9] = tested on: DU-145
[10] = tested on: EKVX
[11] = tested on: HCC 2998
[12] = tested on: HCT-116
[13] = tested on: HCT-15
[14] = tested on: HL-60
[15] = tested on: HOP-62
[16] = tested on: HOP-92
[17] = tested on: HT-29
[18] = tested on: Hs-578T
[19] = tested on: IGROV-1
[20] = tested on: K562
[21] = tested on: KM12
[22] = tested on: LOX IMVI
[23] = tested on: M14
[24] = tested on: MCF7
[25] = tested on: MDA-MB-231
[26] = tested on: MDA-MB-435
[27] = tested on: MDA-N
[28] = tested on: MOLT-4
[29] = tested on: Malme-3M
[30] = tested on: NCI-H23
[31] = tested on: NCI-H460
[32] = tested on: NCI-H522
[33] = tested on: NCI/ADR-RES
[34] = tested on: OVCAR-3
[35] = tested on: OVCAR-4
[36] = tested on: OVCAR-5
[37] = tested on: OVCAR-8
[38] = tested on: PC-3
[39] = tested on: RPMI-8226
[40] = tested on: RXF 393
[41] = tested on: SF-268
[42] = tested on: SF-295
[43] = tested on: SF-539
[44] = tested on: SK-MEL-28
[45] = tested on: SK-MEL-2
[46] = tested on: SK-MEL-5
[47] = tested on: SK-OV-3
[48] = tested on: SN12C
[49] = tested on: SNB-19
[50] = tested on: SNB-75
[51] = tested on: SW-620
[52] = tested on: T47D
[53] = tested on: TK-10
[54] = tested on: U-251
[55] = tested on: UACC-257
[56] = tested on: UACC-62
[57] = tested on: UO-31
[58] = tested on: NCI-H226

SMILES: CC1CNC(c2cccc(OCc3ccc(COc4cccc(C5=NC(C)CN5)c4)cc3)c2)=N1 (configuration not stated)
- GI50 [1]: 34.1 µM (inactive)
- GI50 [2]: > 100 µM (inactive)
- GI50 [3]: 40.6 µM (inactive)
- GI50 [4]: > 100 µM (inactive)
- GI50 [5]: 61.5 µM (inactive)
- GI50 [6]: > 100 µM (inactive)
- GI50 [7]: 18.9 µM (inactive)
- GI50 [8]: 17 µM (inactive)
- GI50 [9]: 50.8 µM (inactive)
- GI50 [10]: 45.8 µM (inactive)
- GI50 [11]: 24 µM (inactive)
- GI50 [12]: 23.6 µM (inactive)
- GI50 [13]: > 100 µM
- GI50 [14]: 23.2 µM (inactive)
- GI50 [15]: 40.6 µM (inactive)
- GI50 [16]: > 100 µM (inactive)
- GI50 [17]: 25.4 µM (inactive)
- GI50 [18]: 20.2 µM (inactive)
- GI50 [19]: > 100 µM (inactive)
- GI50 [20]: 5.7 µM (inactive)
- GI50 [21]: 22.7 µM (inactive)
- GI50 [22]: 22 µM (inactive)
- GI50 [23]: > 100 µM (inactive)
- GI50 [24]: 28.2 µM (inactive)
- GI50 [25]: 42.3 µM (inactive)
- GI50 [26]: 45.5 µM (inactive)
- GI50 [27]: 38.6 µM (inactive)
- GI50 [28]: 19.3 µM (inactive)
- GI50 [29]: 58.5 µM (inactive)
- GI50 [30]: 43.7 µM (inactive)
- GI50 [31]: 22.5 µM (inactive)
- GI50 [32]: 23 µM (inactive)
- GI50 [33]: > 100 µM (inactive)
- GI50 [34]: 67.9 µM (inactive)
- GI50 [35]: 49.7 µM (inactive)
- GI50 [36]: 40.1 µM (inactive)
- GI50 [37]: 56.8 µM (inactive)
- GI50 [38]: 28.9 µM (inactive)
- GI50 [39]: 15.6 µM (inactive)
- GI50 [40]: 40.7 µM (inactive)
- GI50 [41]: 35.6 µM (inactive)
- GI50 [42]: 66.8 µM (inactive)
- GI50 [43]: 16.3 µM (inactive)
- GI50 [44]: 61.7 µM (inactive)
- GI50 [45]: 20.8 µM (inactive)
- GI50 [46]: 22.9 µM (inactive)
- GI50 [47]: > 100 µM (inactive)
- GI50 [48]: 19.5 µM (inactive)
- GI50 [49]: 68.1 µM (inactive)
- GI50 [50]: 22.2 µM (inactive)
- GI50 [51]: 42.6 µM (inactive)
- GI50 [52]: 35.9 µM (inactive)
- GI50 [53]: 27.1 µM (inactive)
- GI50 [54]: 35.6 µM (inactive)
- GI50 [55]: 12.6 µM (inactive)
- GI50 [56]: 99.5 µM (inactive)
- GI50 [57]: > 100 µM (inactive)

SMILES: C/C(=N\n1c(Cc2ccccc2)n[nH]c1=O)c1ccc([N+](=O)[O-])cc1
- GI50 [1]: > 100 µM (inactive)
- GI50 [3]: > 100 µM (inactive)
- GI50 [5]: > 100 µM (inactive)
- GI50 [6]: 78.5 µM (inactive)
- GI50 [8]: > 100 µM (inactive)
- GI50 [9]: > 100 µM (inactive)
- GI50 [10]: 74.5 µM (inactive)
- GI50 [12]: > 100 µM (inactive)
- GI50 [13]: > 100 µM
- GI50 [14]: > 100 µM (inactive)
- GI50 [15]: 49.2 µM (inactive)
- GI50 [16]: 25.6 µM (inactive)
- GI50 [17]: > 100 µM (inactive)
- GI50 [18]: 64.4 µM (inactive)
- GI50 [19]: > 100 µM (inactive)
- GI50 [20]: > 100 µM (inactive)
- GI50 [21]: > 100 µM (inactive)
- GI50 [22]: > 100 µM (inactive)
- GI50 [23]: > 100 µM (inactive)
- GI50 [24]: 21 µM (inactive)
- GI50 [25]: > 100 µM (inactive)
- GI50 [26]: > 100 µM (inactive)
- GI50 [27]: > 100 µM (inactive)
- GI50 [28]: 52.8 µM (inactive)
- GI50 [29]: > 100 µM (inactive)
- GI50 [58]: > 100 µM (inactive)
- GI50 [30]: > 100 µM (inactive)
- GI50 [31]: > 100 µM (inactive)
- GI50 [32]: > 100 µM (inactive)
- GI50 [33]: > 100 µM (inactive)
- GI50 [34]: > 100 µM (inactive)
- GI50 [35]: > 100 µM (inactive)
- GI50 [36]: > 100 µM (inactive)
- GI50 [37]: 69.7 µM (inactive)
- GI50 [38]: > 100 µM (inactive)
- GI50 [39]: 50.4 µM (inactive)
- GI50 [40]: 16.6 µM (inactive)
- GI50 [42]: 91.8 µM (inactive)
- GI50 [44]: > 100 µM (inactive)
- GI50 [45]: > 100 µM (inactive)
- GI50 [46]: > 100 µM (inactive)
- GI50 [48]: > 100 µM (inactive)
- GI50 [49]: > 100 µM (inactive)
- GI50 [51]: > 100 µM (inactive)
- GI50 [52]: 94 µM (inactive)
- GI50 [53]: > 100 µM (inactive)
- GI50 [54]: > 100 µM (inactive)
- GI50 [55]: > 100 µM (inactive)
- GI50 [56]: > 100 µM (inactive)
- GI50 [57]: > 100 µM (inactive)
